A word on the EC50: it is the concentration at which the effect is half-maximal.

Active and inactive are the calls of the source.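 Rule for the calls: active = EC50 no more than a set limit of log units above the highest dose; inactive = the rest.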

The target in this assay is S. pyogenes SKKanGAS, kanamycin survival, BacTiterGlo, 6 h. Kind of assay: S. pyogenes SKKanGAS kanamycin growth inhibitors – SKKanGAS strain, luminescence, dose confirmation, streptokinase promoter inhibitor project, dose response (AID 1902).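 Note: lower survival reflects blocked streptokinase promoter driving kanamycin resistance gene.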
Turning to `O=C(COc1ccc(-c2ccccc2)cc1)N/N=C/c1cc(O)ccc1Br`, the EC50 is 2.27 µM.

On to `O=C(/C=C1\NC2(CCCC2)Cc2ccccc21)C(=O)N/N=C/c1ccccc1O`, for which the EC50 is 2.27 µM.

As to `CCOC(=O)c1cnc(-n2nc(C)cc2C)nc1Nc1ccc(OC)cc1`, the EC50 was 0.185 µM.

`CSc1nc(SCC(=O)O)c2sc3nc(-c4ccccc4)c4c(c3c2n1)CCC4`: the EC50 was 1.14 µM.

As to `CCN(CCn1cccn1)C(=O)CC1C(=O)NCCN1CCc1ccccc1` (stereo not drawn), the EC50 is > 15 µM (inactive).

In the case of `c1ccc(CNc2nc(-c3ccccn3)nc3ccccc23)cc1`, the 50% effective concentration (EC50) was 0.418 µM.

In the case of `COC(=O)c1ccc(Oc2nc3ccccc3n3c(C)nnc23)cc1`, the concentration giving a half-maximal response (EC50) is 6.1 µM.

On to `CC(=O)c1c(O)cc(O)c(C(C)=O)c1O`, for which the EC50 was 2.64 µM.

Regarding `O=C(Nc1ccc(OC(F)(F)F)cc1)N1CCN(c2ccnc3cc(Cl)ccc23)CC1`, the EC50 is 9.37 µM.

As for `Cc1ccc(NC(=S)N=Nc2c(O)[nH]c3ccccc23)cc1`, the half-maximal effective concentration (EC50) was 0.631 µM.

Consider `N#Cc1nc(-c2ccc(OCc3ccccc3Cl)cc2)oc1NCCCn1ccnc1`, for which the EC50 was 3.27 µM.

As to `CNC1=C(N(C(C)=O)c2ccc(Br)cc2)C(=O)c2ccccc2C1=O`, the EC50 is 6.36 µM.

For the molecule `COc1ccc(-c2cc3nc(-c4ccccc4)cc(N4CCCC(O)C4)n3n2)cc1` (stereo not drawn), the concentration giving a half-maximal response (EC50) is 4.3 µM.

For the molecule `CC(C)c1c(C(=O)N/N=C/c2cccc(OCc3ccc(F)cc3)c2)nnn1-c1nonc1N`, the EC50 is 5.19 µM.

For `COc1ccc(C(=O)CSc2nc(-c3ccccn3)nc(C)c2Cl)cc1`, the EC50 was 1.4 µM.

Take `CCOc1ccccc1NC(=O)NCc1ccc2c(c1)OCO2`: the EC50 was > 15 µM (inactive).

Turning to `COC(=O)c1ccc(CSc2cc(C)c3cc(C)cc(C)c3n2)o1`, the EC50 was 4.86 µM.

On to `O=C(COc1c(Cl)cccc1Cl)Nc1ccccc1N1CCCC1`, for which the EC50 was 6.24 µM.

For `O=C(Nc1ccccc1)c1nnsc1S(=O)c1ccc(Cl)cc1` (stereo not drawn), the EC50 was 1.34 µM.

Regarding `Oc1c(Cl)cc(Cl)cc1C=Nc1cc(C(F)(F)F)ccc1N1CCc2ccccc2C1`, the EC50 is 3 µM.

As to `Cc1cc(N/N=C/c2ccccc2O)nc(-c2ccccc2O)n1`, the EC50 was 1.6 µM.

In the case of `O=C(CSc1ccccn1)N/N=C/c1cc([N+](=O)[O-])ccc1O`, the EC50 was 1.04 µM.

Regarding `CCN(CC)C(=O)c1cc(-c2ccc(Br)cc2)on1`, the EC50 was > 15 µM (inactive).

On to `Cc1[nH]n(-c2ccccc2)c(=O)c1/C=N/NC(=O)c1ccccc1F`, for which the EC50 is 1.12 µM.

Take `O=S(=O)(NC(=NCc1ccccc1)c1ccccc1)c1ccc(Br)cc1`: the EC50 is > 15 µM (inactive).

For the molecule `CN(C)[C@@H]1C(=O)C(C(N)=O)=C(O)[C@@]2(O)C(=O)C3=C(O)c4c(O)ccc(Cl)c4[C@@](C)(O)[C@H]3C[C@@H]12`, the EC50 was 0.065 µM.

For `CCOC(=O)c1sc(=S)n2c1[nH]c(=O)c1ccc(C(=O)OC)cc12`, the EC50 is 3.81 µM.

With `Cc1ccc(C(=O)C2=C(O)C(=O)N(Cc3ccco3)C2c2cccc(Br)c2)o1` (stereo not drawn), the EC50 was 6.67 µM.

With `Cn1c(=O)c(C(=O)NNC(=O)c2ccccc2Br)c(O)c2ccccc21`, the EC50 was 7.51 µM.

On to `COc1ccccc1-c1nnc(NC(=O)c2ccc(S(=O)(=O)N(C)CC3CCCO3)cc2)o1` (stereo not drawn), for which the EC50 is 8.41 µM.

For the molecule `CC(/C=C1\SC(=O)N(CC(=O)Nc2ccc(O)cc2)C1=O)=C\c1ccccc1`, the EC50 is 8.02 µM.

For `COc1ccc(C(=O)NC(=S)NNC(=O)c2ccccc2O)cc1`, the EC50 is 1.44 µM.

Consider `Cn1c(N)c(C(=O)COC(=O)/C=C/c2ccc(OC(F)F)cc2)c(=O)n(C)c1=O`, for which the EC50 was 1.47 µM.

Consider `c1cn2c(NC3CCCCC3)c(-c3ccc(SC4CCCCC4)cc3)nc2cn1`, for which the EC50 was 1.97 µM.

With `Clc1ccc(C2C3=C(Nc4ncnn42)c2ccccc2CC3)cc1` (stereo not drawn), the concentration for a half-maximal effect (EC50) is 11.4 µM.

As for `CN1C(=O)NC(c2ccccc2)(C(F)(F)F)S/C1=C(/C#N)c1nnc(N2CCOCC2)n1-c1ccccc1` (stereo not drawn), the EC50 is > 15 µM (inactive).

On to `CCCn1c(=O)c(C(=O)Nc2ncccc2C)c(O)c2ccccc21`, for which the EC50 was 5.16 µM.

Regarding `O=C(Nc1nnc(C2=COCCO2)o1)c1cccc(C(F)(F)F)c1`, the EC50 is 1.73 µM.

Take `c1ccc(-c2oc3ncnc(NCCCn4ccnc4)c3c2-c2ccccc2)cc1`: the EC50 is 8.92 µM.

In the case of `Cc1ccc(N=N/C(=C\O)C(=O)c2ccc(Cl)cc2)cc1`, the EC50 is 8.59 µM.

With `O=C(OCc1ccccc1)c1cccc(-c2nnn(Cc3ccccc3)n2)c1`, the EC50 was 2.73 µM.

On to `CC(C)C(=O)NC(c1cccs1)c1cc([N+](=O)[O-])c2cccnc2c1O` (stereo not drawn), for which the EC50 is 1.45 µM.

On to `OC(CNCc1ccco1)Cn1c2ccc(Br)cc2c2cc(Br)ccc21` (stereo not drawn), for which the EC50 was 5.85 µM.

In the case of `CCOC(=O)C1=Nc2ccccc2C1=[N+]=[N-]`, the EC50 is 0.248 µM.

On to `O=C(N/N=C/c1cc([N+](=O)[O-])ccc1O)c1cc(-c2ccccc2)nc2ccccc12`, for which the EC50 is 0.603 µM.

Consider `CCCn1c(=O)c(C(=O)N/N=C/c2ccc(F)cc2)c(O)c2ccccc21`, for which the EC50 was 3.19 µM.

Consider `FC(F)(F)c1cc(-c2ccco2)nc(NCc2ccc(Cl)cc2)n1`, for which the EC50 is 7.1 µM.

In the case of `Oc1c(CN2CCN(c3ccc(F)cc3)CC2)cc(Cl)c2cccnc12`, the EC50 was 1.01 µM.

For `Cc1cccc(NC(=O)C(=O)NNC(=O)c2ccc(C(C)(C)C)cc2)c1`, the EC50 is 5.41 µM.

As to `COc1ccc(C(NC(C)=O)c2cc(Cl)c3cccnc3c2O)cc1OC` (stereo not drawn), the EC50 was 5.2 µM.

Take `O=C(N/N=C/c1cc(Br)ccc1O)c1ccncc1`: the EC50 was 1.15 µM.

Consider `Cc1cc(C)cc(C(=O)N2CCC(CCC(=O)NC3CC3)CC2)c1`, for which the EC50 was > 15 µM (inactive).

With `CC(C)S(=O)(=O)c1csc(NC(=O)Nc2cc(Cl)ccc2Cl)c1Cl`, the EC50 is 1.65 µM.

Regarding `C[C@H]1COc2c(N3CCN(C)CC3)c(F)cc3c(=O)c(C(=O)O)cn1c23`, the EC50 was 1.55 µM.

Take `COc1ccc(O)c(C(=O)CC(=O)c2ccccc2C)c1`: the EC50 was 4.76 µM.

As for `OCCCCC#Cc1c(-c2ccsc2)sc2ccccc12`, the EC50 was 7.82 µM.

Take `O=C(N/N=C(\c1ccccc1)c1cccnc1)c1cccc(F)c1`: the EC50 was 3.49 µM.

Turning to `Cc1ccc(Nc2cc(C)nn2-c2nc(C)cc(=O)[nH]2)cc1`, the EC50 is below 0.06 µM.

`S=c1[nH]nc(-c2cccs2)n1/N=C/c1cn(-c2ccccc2)nc1-c1ccccc1`: the EC50 was 7.78 µM.

As to `Cc1ccc(/C=C/C(=O)NC(=S)Nc2ccc(S(=O)(=O)Nc3cc(C)on3)cc2)cc1`, the EC50 was 9.27 µM.

With `O=c1c2ccccc2oc2cc(-c3ccc4[nH]ccc4c3)ccc12`, the EC50 was 4.85 µM.

Regarding `Cc1ccc(-c2nc3cc(NS(=O)(=O)c4ccc(C)cc4)ccc3o2)cc1`, the half-maximal effective concentration (EC50) is 6.28 µM.

Take `C=C(C)COc1ccc(-c2[nH]ncc2Oc2ccc(OC)cc2)c(O)c1`: the EC50 was 4.05 µM.

Consider `COc1c(N2CCN(C(=S)Nc3ccc(F)cc3)C(C)C2)c(F)cc2c(=O)c(C(=O)O)cn(C3CC3)c12` (stereo not drawn), for which the concentration for a half-maximal effect (EC50) was 3.37 µM.

For the molecule `COc1ccccc1-n1c(SCC(=O)Nc2ccc(Br)cc2)nc(O)cc1=O`, the EC50 is 10.3 µM.

In the case of `O=C(Nc1nnc(SCc2ccc(F)cc2)s1)c1ccccn1`, the concentration for a half-maximal effect (EC50) was 0.382 µM.

As for `CCCCCCCCCc1nc2sc3c(c2c(=O)n1NC(=O)c1ccccc1[N+](=O)[O-])CC(C)(C)OC3`, the concentration giving a half-maximal response (EC50) was 2.75 µM.

In the case of `COC(=O)c1cc(-c2cccc(OC)c2)c2c(=O)[nH]c(=O)n(C)c2n1`, the EC50 was 4.31 µM.

The values above are taken from PubChem BioAssay AID1902 (Broad Institute, 2009).
